Results on 13 molecules are retold here after patent publication US20240058450A1, “BCL-XL Inhibitory Compounds Having Low Cell Permeability and Antibody Drug Conjugates Including the Same” (AbbVie Inc., priority 2014, published 2024).

The term Ki denotes the dissociation constant of the complex between target and ligand, obtained from inhibition or displacement. As a reminder, the EC50 is the concentration at which the effect is half-maximal.

In assay [1] the target is Bcl-xL (Homo sapiens, UniProt Q07817). Kind of assay: Time Resolved-Fluorescence Resonance Energy Transfer (TR-FRET) binding assay, competition with probe F-Bak. On the procedure: Tb-anti-GST antibody was purchased from Invitrogen (Catalog No. PV4216).
Bcl-xL, sequence (Q07817 whole entry): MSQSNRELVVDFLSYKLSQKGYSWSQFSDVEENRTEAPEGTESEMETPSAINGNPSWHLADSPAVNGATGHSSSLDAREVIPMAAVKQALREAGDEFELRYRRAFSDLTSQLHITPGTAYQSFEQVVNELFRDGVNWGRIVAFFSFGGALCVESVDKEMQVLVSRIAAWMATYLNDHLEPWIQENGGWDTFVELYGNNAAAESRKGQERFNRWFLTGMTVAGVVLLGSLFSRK
For the assay, test compounds were serially diluted in DMSO starting at 50 μM (2× starting concentration; 10% DMSO) and 10 μL transferred into a 384-well plate. 10 μL of a protein/probe/antibody mix was then added to each well at final concentrations listed below:
The samples were then mixed on a shaker for 1 minute and incubated for an additional 2 hours at room temperature. For each assay plate, a probe/antibody and protein/antibody/probe mixture were included as a negative and a positive control, respectively. Fluorescence was measured on the Envision (Perkin Elmer) using a 340/35 nm excitation filter and 520/525 (F-Bak) and 495/510 nm (Tb-labeled anti-his antibody) emission filters. Dissociation constants (Ki) were determined using Wang's equation (Wang, 1995, FEBS Lett. 360:111-114). The TR-FRET assay can be performed in the presence of varying concentrations of human serum (HS) or fetal bovine serum (FBS). Compounds were tested both without HS and in the presence of 1% HS.
For orientation: In TR-FRET formats the signal depends on donor and acceptor labels being close together.

For assay [2], the system named is Molt-4 human acute lymphoblastic leukemia cells. Kind of assay: Molt-4 cell viability assay (CellTiter-Glo, 48 hours, 10% HS). It is filed as cell-based. To be noted: Homo sapiens, MOLT-4, 48 h, non-permeabilized cells. The method, then: The ability of Bcl-xL inhibitors that are able to traverse cell membranes to inhibit Bcl-xL can be determined in cell-based killing assays using a variety of cell lines and mouse tumor models. For example, their activity on cell viability can be assessed on a panel of cultured tumorigenic and non-tumorigenic cell lines, as well as primary mouse or human cell populations.
In one exemplary set of conditions, Molt-4 (ATCC, Manassas, VA) human acute lymphoblastic leukemia cells were plated 12,500 cells per well in 384-well tissue culture plates (Corning, Corning, NY) in a total volume of 25 μL tissue culture medium supplemented with 10% human serum (Sigma-Aldrich, St. Louis, MO) and treated with a 3-fold serial dilution of the compounds of interest from 10 μM to 0.0005 μM. Each concentration was tested in duplicate at least 3 separate times. The number of viable cells following 48 hours of compound treatment was determined using the CellTiter-Glo®, Luminescent Cell Viability Assay according to the manufacturer's recommendations (Promega Corp., Madison, WI). Compounds were tested in the presence of 10% HS.
In general terms: Cellular ATP, detected with luciferase, serves as a proxy for viable cell number.

Setting [3] is: in the presence of 1% HS, read-out: Bcl-xL Binding Ki (nM, 1% HS).
[4] abbreviates: without HS, read-out: Bcl-xL Binding Ki.

Like-named read-outs stand apart in the source and are kept apart here. Some results are limits rather than exact numbers.

Consider `Cc1c(-c2ccc(N3CCc4cccc(C(=O)Nc5nc6ncccc6s5)c4C3)nc2C(=O)O)cnn1CC12CC3(C)CC(C)(C1)CC(OCCN(CCCP(=O)(O)O)C1CCNCC1)(C3)C2` [Example 1.50, 3-{1-[(3,5-dimethyl-7-{2-[(3-phosphonopropyl)(piperidin-4-yl)amino]ethoxy)tricyclo[3.3.1.1^3,7]dec-1-yl)methyl]-5-methyl-1H-pyrazol-4-yl}-6-[8-([1,3]thiazolo[4,5-b]pyridin-2-ylcarbamoyl)-3,4-dihydroisoquinolin-2 (1H)-yl]pyridine-2-carboxylic acid], for which the Ki in assay [1] (setting [3]) is 0.051 nM; in assay [1] (setting [4]) it was 0.0073 nM. Moreover, in assay [2], it took 2770 nM to reach a half-maximal effect (EC50).

For `Cc1c(-c2ccc(-c3ccc4c(c3)N(C(=O)Nc3nc5ccccc5s3)CCO4)nc2C(=O)O)cnn1CC12CC3(C)CC(C)(C1)CC(OCCNCCS(=O)(=O)O)(C3)C2` [Example 1.51, 6-[4-(1,3-benzothiazol-2-ylcarbamoyl)-3,4-dihydro-2H-1,4-benzoxazin-6-yl]-3-{1-[(3,5-dimethyl-7-{2-[(2-sulfoethyl)amino]ethoxy}tricyclo[3.3.1.1^3,7]dec-1-yl)methyl]-5-methyl-1H-pyrazol-4-yl}pyridine-2-carboxylic acid], the Ki is 0.17 nM in assay [1] (setting [3]) and less than 0.001 nM in assay [1] (setting [4]). In assay [2], it took 555 nM to reach a half-maximal effect (EC50).

Regarding `CNCCOC12CC3(C)CC(C)(CC(Cn4ncc(-c5ccc(N6CCc7c(OCCCS(=O)(=O)O)ccc(C(=O)Nc8nc9ccccc9s8)c7C6)nc5C(=O)O)c4C)(C3)C1)C2` [Example 1.52, 6-[8-(1,3-benzothiazol-2-ylcarbamoyl)-5-(3-sulfopropoxy)-3,4-dihydroisoquinolin-2 (1H)-yl]-3-[1-({3,5-dimethyl-7-[2-(methylamino)ethoxy]tricyclo[3.3.1.1^3,7]dec-1-yl}methyl)-5-methyl-1H-pyrazol-4-yl]pyridine-2-carboxylic acid], the Ki in assay [1] (setting [3]) was 0.0329 nM; in assay [1] (setting [4]), less than 0.001 nM. Besides, in assay [2], a half-maximal response (EC50) required 973 nM.

For the molecule `Cc1c(-c2ccc(-c3ccc4c(c3)N(C(=O)Nc3nc5ncccc5s3)CCC4)nc2C(=O)O)cnn1CC12CC3(C)CC(C)(C1)CC(OCCNCCS(=O)(=O)O)(C3)C2` [Example 1.53, 3-{1-[(3,5-dimethyl-7-{2-[(2-sulfoethyl)amino]ethoxy}tricyclo[3.3.1.1^3,7]dec-1-yl)methyl]-5-methyl-1H-pyrazol-4-yl}-6-[1-([1,3]thiazolo[4,5-b]pyridin-2-ylcarbamoyl)-1,2,3,4-tetrahydroquinolin-7-yl]pyridine-2-carboxylic acid], the Ki in assay [1] (setting [3]) is 0.088 nM; in assay [1] (setting [4]) it was less than 0.001 nM. In assay [2], the EC50 came out at 462 nM.

With `Cc1c(-c2ccc(-c3ccc4cccc(C(=O)Nc5nc6ncccc6s5)c4c3)nc2C(=O)O)cnn1CC12CC3(C)CC(C)(C1)CC(OCCNCCS(=O)(=O)O)(C3)C2` [Example 1.54, 3-{1-[(3,5-dimethyl-7-[2-[(2-sulfoethyl)amino]ethoxy}tricyclo[3.3.1.1^3,7]dec-1-yl)methyl]-5-methyl-1H-pyrazol-4-yl}-6-[8-([1,3]thiazolo[4,5-b]pyridin-2-ylcarbamoyl)naphthalen-2-yl]pyridine-2-carboxylic acid], the figures for the Ki in assay [1] (setting [3]) and in assay [1] (setting [4]) were 0.11 nM and less than 0.001 nM, respectively. The same molecule displayed an EC50 in assay [2] of more than 10000 nM.

Consider `Cc1c(-c2ccc(N3CCc4c(CC5O[C@H](CO)[C@@H](O)[C@H](O)[C@H]5O)ccc(C(=O)Nc5nc6ccccc6s5)c4C3)nc2C(=O)O)cnn1CC12CC3(C)CC(C)(C1)CC(OCCN)(C3)C2` (stereo partly drawn) [Example 1.55, (1ξ)-1-({2-[5-(1-{[3-(2-aminoethoxy)-5,7-dimethyltricyclo[3.3.1.1^3,7]dec-1-yl]methyl}-5-methyl-1H-pyrazol-4-yl)-6-carboxypyridin-2-yl]-8-(1,3-benzothiazol-2-ylcarbamoyl)-1,2,3,4-tetrahydroisoquinolin-5-yl}methyl)-1,5-anhydro-D-glucitol], for which the Ki in assay [1] (setting [3]) and in assay [1] (setting [4]) was 0.039 nM each time. For the same molecule, the EC50 in assay [2] amounted to 73 nM.

On to `Cc1c(-c2ccc(N3CCc4cccc(C(=O)Nc5nc6ccccc6s5)c4C3)nc2C(=O)O)cnn1CC12CC3(C)CC(C)(C1)CC(OCCNCCCC(=O)O)(C3)C2` [Example 1.56, 6-[8-(1,3-benzothiazol-2-ylcarbamoyl)-3,4-dihydroisoquinolin-2 (1H)-yl]-3-{1-[(3-{2-[(3-carboxypropyl)amino]ethoxy}-5,7-dimethyltricyclo[3.3.1.1^3,7]dec-1-yl)methyl]-5-methyl-1H-pyrazol-4-yl}pyridine-2-carboxylic acid], for which the Ki was 0.123 nM in assay [1] (setting [3]) and less than 0.001 nM in assay [1] (setting [4]). For the same molecule, in assay [2], a half-maximal effect (EC50) was put at 196 nM.

As for `Cc1c(-c2ccc(N3CCc4cccc(C(=O)Nc5nc6ccccc6s5)c4C3)nc2C(=O)O)cnn1CC12CC3(C)CC(C)(C1)CC(OCCN(CCS(=O)(=O)O)C1CNC1)(C3)C2` [Example 1.60, 3-{1-[(3-{2-[azetidin-3-yl(2-sulfoethyl)amino]ethoxy}-5,7-dimethyltricyclo[3.3.1.1^3,7]dec-1-yl)methyl]-5-methyl-1H-pyrazol-4-yl}-6-[8-(1,3-benzothiazol-2-ylcarbamoyl)-3,4-dihydroisoquinolin-2 (1H)-yl]pyridine-2-carboxylic acid], the figures for the Ki in assay [1] (setting [3]) and in assay [1] (setting [4]) were 0.049 nM and less than 0.001 nM, respectively. The same molecule gave an EC50 in assay [2] of 425 nM.

Take `Cc1c(-c2ccc(N3CCc4cccc(C(=O)Nc5nc6ccccc6s5)c4C3)nc2C(=O)O)cnn1CC12CC3(C)CC(C)(C1)CC(OCCN(CCCN)CCS(=O)(=O)O)(C3)C2` [Example 1.61, 3-{1-[(3-{2-[(3-aminopropyl)(2-sulfoethyl)amino]ethoxy}-5,7-dimethyltricyclo[3.3.1.1^3,7]dec-1-yl)methyl]-5-methyl-1H-pyrazol-4-yl}-6-[8-(1,3-benzothiazol-2-ylcarbamoyl)-3,4-dihydroisoquinolin-2 (1H)-yl]pyridine-2-carboxylic acid]: the Ki in assay [1] (setting [3]) is 0.097 nM; in assay [1] (setting [4]) it was less than 0.001 nM. Moreover, the midpoint of the response in assay [2], the EC50, lay at 255 nM.

As for `Cc1c(-c2ccc(-c3ccc4c(c3)N(C(=O)Nc3nc5ccccc5s3)CCC4)nc2C(=O)O)cnn1CC12CC3(C)CC(C)(C1)CC(OCCNCCC(=O)O)(C3)C2` [Example 1.62, 6-[1-(1,3-benzothiazol-2-ylcarbamoyl)-1,2,3,4-tetrahydroquinolin-7-yl]-3-{1-[(3-{2-[(2-carboxyethyl)amino]ethoxy}-5,7-dimethyltricyclo[3.3.1.1^3,7]dec-1-yl)methyl]-5-methyl-1H-pyrazol-4-yl)pyridine-2-carboxylic acid], the Ki in assay [1] (setting [3]) is 0.2 nM; in assay [1] (setting [4]), less than 0.001 nM. In assay [2], this molecule yielded an EC50 of 153 nM.

With `Cc1c(-c2ccc(N3CCc4cccc(C(=O)Nc5nc6ccccc6s5)c4C3)nc2C(=O)O)cnn1CC12CC3(C)CC(C)(C1)CC(OCCN(C)C(=O)[C@@H](N)CCCCN(C)C)(C3)C2` [Example 1.63, 6-[8-(1,3-benzothiazol-2-ylcarbamoyl)-3,4-dihydroisoquinolin-2 (1H)-yl]-3-{1-[(3-{2-[(N′,N′-dimethyl-L-lysyl)(methyl)amino]ethoxy}-5,7-dimethyltricyclo[3.3.1.1^3,7]dec-1-yl)methyl]-5-methyl-1H-pyrazol-4-yl}pyridine-2-carboxylic acid], the Ki in assay [1] (setting [3]) and in assay [1] (setting [4]) was less than 0.01 nM throughout. The same molecule gave an EC50 in assay [2] of 2.22 nM.

For the molecule `Cc1c(-c2ccc(-c3ccc4c(c3)N(C(=O)Nc3nc5ccccc5s3)CCC4)nc2C(=O)O)cnn1CC12CC3(C)CC(C)(C1)CC(OCCN(C)CCCN)(C3)C2` [Example 1.64, 3-{1-[(3-{2-[(3-aminopropyl)(methyl)amino]ethoxy}-5,7-dimethyltricyclo[3.3.1.1^3,7]dec-1-yl)methyl]-5-methyl-1H-pyrazol-4-yl)-6-[1-(1,3-benzothiazol-2-ylcarbamoyl)-1,2,3,4-tetrahydroquinolin-7-yl]pyridine-2-carboxylic acid], the Ki in assay [1] (setting [3]) and in assay [1] (setting [4]) was less than 0.01 nM each time. The EC50 in assay [2] was 5.25 nM.

Consider `Cc1c(-c2ccc(-c3ccc4cccc(C(=O)Nc5nc6ccccc6s5)c4c3)nc2C(=O)O)cnn1CC12CC3(C)CC(C)(C1)CC(OCCNCCC(=O)O)(C3)C2` [Example 1.68, 6-[8-(1,3-benzothiazol-2-ylcarbamoyl)naphthalen-2-yl]-3-(1-[(3-{2-[(2-carboxyethyl)amino]ethoxy}-5,7-dimethyltricyclo[3.3.1.1^3,7]dec-1-yl)methyl]-5-methyl-1H-pyrazol-4-yl}pyridine-2-carboxylic acid], for which the Ki in assay [1] (setting [3]) is 0.32 nM; in assay [1] (setting [4]), less than 0.01 nM. The EC50 in assay [2] amounted to 346 nM.
